Earlier results, collected in publication PMC7356390, “Dehydrozingerone, a Curcumin Analog, as a Potential Anti-Prostate Cancer Inhibitor In Vitro and In Vivo” (Molecules, 2020).

Key:
PLS10 cells = tested on: PLS10 cells; set-up: method as in PMID 30499149; details: read-out: IC50 of Cur on PLS10 cells (previous study); cited from earlier work
[1] = intraperitoneal administration of 100 mg/kg; cited from earlier work

| SMILES | IC50 (PLS10 cells) [µM] | effect on serum aspartate aminotransferase, alanine transaminase, serum creatinine, blood urea and lactate dehydrogenase [1] |
| --- | --- | --- |
| COc1cc(/C=C/C(=O)CC(=O)/C=C/c2ccc(O)c(OC)c2)ccc1O [Cur, Curcumin] | 26.5 ± 1.8 | – |
| COc1cc(/C=C/C(C)=O)ccc1O [DZG, (E)-4-(4-hydroxy-3-methoxyphenyl)-but-3-en-2-one] | – | no effect |
